This passage reports EC50 results from patent US6346529B1, “Antiviral therapy using thiazine dyes” (Oklahoma Medical Research Foundation, priority 1988, dated 2002).

What all share (format): cell-based
In one assay the test system is HSV-1 (F strain). Briefly: HSV plaque reduction assay in Vero cells, HSV-1. Particulars: read-out: Antiviral Effect: EC50 HSV-1. The method, then: (§1) HSV Preparation: Confluent HEp-2 cells, in a roller bottle (Falcon, 850 cm^2), were infected at an input multiplicity of 0.01 PFU per cell (to minimize production of defective viruses). During the two-hour absorption period, the cells were exposed to the virus inoculum diluted in absorption buffer (10 ml PBS containing 1% newborn calf serum and 0.1% glucose). The virus inoculum was then removed and replaced with Hanks' Minimum Essential Medium (MEM) containing 2% inactivated newborn calf serum, penicillin (100 U/ml) and streptomycin (100 μg/ml) (P and S), sodium bicarbonate (2 g/L) and HEPES (25 mM) (maintenance medium). The infected cells were incubated at 37° C. for 3 to 4 days, until the cells could be easily shaken from the plastic surface of the culture bottles. The cells were then collected by centrifugation, suspended in a small volume of spent culture fluid (5 ml per 2×10^8 cells) and sonicated 3 times for one min on ice. The disrupted cells were centrifuged (2,000 g for 15 min at 4° C. and the supernatant was diluted with an equal volume of sterile skimmed milk (as stabilizer) and aliquots were frozen at −70° C.
(§2) HSV Plaque Reduction Assay: Near confluent Vero (African Green Monkey) cells in 6-well plates were infected with 100 μl virus diluted in absorption buffer to give 100-200 plaques per well. The plates were then incubated at 37° C. for 1 hour with intermittent rocking every 15 minutes. The inoculum was aspirated and the compounds at different concentrations (dissolved in maintenance medium) were added to replicate wells. For these assays, 0.1% pooled human gamma globulin was included in the media. The plates were placed in 5% CO2-95% air incubator and the plaques were allowed to develop for 48 h prior to fixation (buffered 10% Formalin acetate), staining (0.5% crystal violet in 20% EtOH/H2O) and enumeration. The degree of inhibition (percent plaques of control) was calculated by counting the mean plaque counts for the different drug dilutions. […] For routine antiviral drug screening, we used the F strain of HSV-1 and the G strain of HSV-2 (Ejercito, et al., “Characterization of Herpes Simplex virus Strains Differing in Their Effect on Social Behavior of Infected Cells,” J. Gen. Virol. 2, 357-364 (1968)). […] Acyclovir (ACV) was used as a positive control for the studies on HSV.
(§3) Median-Effect Method: EC50 and IC50 values were obtained by analysis of the data using the median-effect equation (Chou, T., et al., “Quantitative Analysis of Dose-Effect Relationships: The Combined Effects of Multiple Drugs or Enzyme Inhibitors,” Adv. Enz. Regul. 22, 27-55 (1984).

In the next assay the test system is HIV-1 (strain LAV-1). Nature of the assay: Inhibition of HIV-1 replication in human PBMC (supernatant RT activity). Particulars: Human immunodeficiency virus 1, PBMC. The protocol: Cells: Human peripheral blood mononuclear cells (PBMC) from healthy HIV-1 seronegative and hepatitis B virus seronegative donors were isolated by Ficoll-Hypaque discontinuous gradient centrifugation at 1,000×g for 30 minutes, washed twice in phosphate-buffered saline (pH 7.2; PBS), and pelleted at 300×g for 10 minutes. Before infection, the cells were stimulated by phytohemagglutinin (PHA) at a concentration of 16.7 μg/ml, and 4 mM sodium bicarbonate buffer.
Retrovirus: HIV-1 (strain LAV-1) was obtained from Dr. P. Feorino (Centers for Disease Control, Atlanta, Ga.). The virus was propagated in human PBMC using RPMI 1640 medium, as described previously by McDougal, et al., (“Immunoassay for the detection and quantitation of infectious human retrovirus, lymphadenopathy-associated virus (LAV),” J. Immun. Meth. 76, 171-183, 1985) without PBA or fungizone and supplemented with 7% (v/v) interleukin-2 (Advanced Biotechnologies, Silver Spring, Md.), 7 μg/ml DEAE-dextran (Pharmacia, Uppsala, Sweden), and 370 U/ml anti-human leukocyte (alpha) interferon (ICN, Lisle, Ill.). Virus obtained from cell-free culture supernatant was titrated and stored in aliquots at −70° C. until use.
Inhibition of Virus Replication in Human PBMC: Uninfected PHA-stimulated human PBMC were uniformly distributed among 25 cm^2 flasks to give a 5 ml suspension containing about 2×10^6 cells/ml. Suitable dilutions of virus were added to infect the cultures. The mean reverse transcriptase (RT) activity of the inocula was 50,000 dpm/ml corresponding to about 100 TCID50, as determined by Groopman, et al., (1987), “Characterization of Serum Neutralization Response to the Human Immunodeficiency Virus (HIV),” AIDS Res. Human Retro. 3, 71-85. The drugs, at twice their final concentrations in 5 ml of RPMI 1640 medium (supplemented as described above), were added to the cultures. Uninfected and untreated PBMC at equivalent cell densities were grown in parallel as controls. The cultures were maintained in a humidified 5% CO2-95% air incubator at 37° C. for six days after infection at which point all cultures were sampled for supernatant RT activity.
RT Activity Assay: A […] aliquot of supernatant from each culture was clarified of cells at 300×g for 10 minutes. […]
The RT assay was performed in 96-well microtiter plates, as described by Spira, et al. (1987), “Micromethod for Assaying the Reverse Transcriptase of LAV-HTLV-III/Lymphadenopathy-Associated Virus,” J. Clin. Microbiol. […] Four ml of scintillation fluid (Econofluor, NEN Research Products, Boston, Mass.) were added and the amount of radioactivity in each sample was determined using a Packard Tri-Carb liquid scintillation analyzer (model 2,000CA). […]

The test system of a further assay is HSV-2 (G strain). Briefly: HSV plaque reduction assay in Vero cells, HSV-2. Particulars: read-out: Antiviral Effect: EC50 HSV-2. The method, then:
as §1, §2, §3
In general terms: Plaques are areas of infected cells; plaque reduction assays count them against a control.

Like-named read-outs stand apart in the source and are kept apart here. Where only a bound is given, the exact number is not on record here.

Turning to `Nc1nc2c(ncn2COCCO)c(=O)[nH]1` [ACV, Acyclovir], the EC50 in the assay on HSV-1 (F strain) (Human alphaherpesvirus 1, Vero, dark) was 13 nM; in the assay with HSV-1 (F strain) (Human alphaherpesvirus 1, Vero, light), 22 nM; with HIV-1 (strain LAV-1) (light, read-out: Antiviral Effect: EC50 HIV-1), > 100000 nM; in the assay on HSV-2 (G strain) (Human alphaherpesvirus 2, Vero, dark) it was 160 nM; in the assay with HSV-2 (G strain) (Human alphaherpesvirus 2, Vero, light), 510 nM.

For the compound `CN(C)c1ccc2nc3ccc(N(C)C)cc3[s+]c2c1.[Cl-]` [MB, 3,7-Bis(dimethylamino)phenothiazin-5-ium chloride], the EC50 in the assay on HSV-1 (F strain) (Human alphaherpesvirus 1, Vero) was ≥ 10000 nM; in the assay on HSV-1 (F strain) (dark) it was ≥ 10000 nM; in the assay on HIV-1 (strain LAV-1) (read-out: Antiviral Effect: EC50 HIV-1, dark), 140 nM; with HIV-1 (strain LAV-1) (read-out: Antiviral Effect: EC50 HIV-1, light) it was 28 nM; with HSV-2 (G strain) (Human alphaherpesvirus 2, Vero) it was ≥ 10000 nM; in the assay with HSV-2 (G strain) (dark), ≥ 10000 nM.

As usually defined, the EC50 is the midpoint of the concentration-response curve.
